According to US20250282820A1, “PEPTIDE COMPLEX HAVING TRKB BINDING ACTIVITY” (PEPTIDREAM INC, priority 2022, published 2025):
*1 amine or outer side, *2 acyl side, *3 side chain or, on linkers, in order; H or OH if unused. Where a SMILES comes first, the peptide text is derived from it. Bridges are numbered along the chain shown (N, C = ends). Roman numbers before positions name the chains, in order. [ ]: non-standard residue; d: D form. ξ: configuration not given here. CO(CH2CH2O)13CH2CH2CO = O=C(CCOCCOCCOCCOCCOCCOCCOCCOCCOCCOCCOCCOCCOCCC(=O)[*:2])[*:1]; X4 = NC(=O)C(CCCCNC(=O)CCOCCC(=O)[*:1])NC(=O)CCOCCOCCOCCOCCOCCCCCOCCOCCN[*:2]; X3 = CC(C)[C@H](CC(=O)[C@H](Cc1cccnc1)N[*:1])C(=O)[*:2]; PEG8 = NCCOCCOCCOCCOCCOCCOCCOCCOCCC(=O)O; 3Pal = N[C@@H](Cc1cccnc1)C(=O)O; Thr(3ξ) = CC(O)[C@H](N)C(=O)O; ξP = O=C(O)C1CCCN1; ξC = NC(CS)C(=O)O

Tests used:
Format in all cases: cell-based
[1] = target: T1, TrkB (CellSensor TrkB-NFAT-bla CHO-K1 Cell) (Homo sapiens, UniProt Q16620); experiment: NFAT transcriptional reporter assay for TrkB agonist activity; conditions: class = peptide concentration giving 50% or more activity; BDNF maximum signal = 100%, no stimulation = 0%; 5 hours culture
T1 construct: host or cells: CHO-K1 (CellSensor TrkB-NFAT-bla CHO-K1)
T1 sequence (Q16620 32-822): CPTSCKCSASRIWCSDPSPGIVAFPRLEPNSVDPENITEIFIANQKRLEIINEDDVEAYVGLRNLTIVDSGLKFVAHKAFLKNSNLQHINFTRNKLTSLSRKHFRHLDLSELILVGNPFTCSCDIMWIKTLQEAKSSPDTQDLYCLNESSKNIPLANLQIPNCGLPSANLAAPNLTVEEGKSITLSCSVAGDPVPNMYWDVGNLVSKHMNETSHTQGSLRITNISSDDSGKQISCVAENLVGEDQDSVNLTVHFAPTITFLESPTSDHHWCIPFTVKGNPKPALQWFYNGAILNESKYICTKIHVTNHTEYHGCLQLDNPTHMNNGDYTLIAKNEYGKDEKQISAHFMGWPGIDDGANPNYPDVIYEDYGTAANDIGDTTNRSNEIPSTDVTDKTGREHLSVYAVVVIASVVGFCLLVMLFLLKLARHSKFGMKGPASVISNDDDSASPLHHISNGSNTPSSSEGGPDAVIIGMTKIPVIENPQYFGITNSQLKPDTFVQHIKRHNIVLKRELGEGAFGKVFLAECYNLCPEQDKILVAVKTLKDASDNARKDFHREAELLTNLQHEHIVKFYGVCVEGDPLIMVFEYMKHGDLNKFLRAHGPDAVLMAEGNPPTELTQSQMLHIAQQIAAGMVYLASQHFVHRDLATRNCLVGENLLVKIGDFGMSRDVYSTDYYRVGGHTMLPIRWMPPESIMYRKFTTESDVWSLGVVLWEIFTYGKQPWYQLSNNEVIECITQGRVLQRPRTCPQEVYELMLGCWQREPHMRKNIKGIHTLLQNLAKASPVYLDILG
Procedure: To evaluate the TrkB activation potency of the TrkB agonist peptide of the present invention, transcriptional activity was examined using transcriptional reporters. The CellSensor (registered trademark) TrkB-NFAT-bla CHO-K1 Cell (Invitrogen) used in the AlphaLISA assay was cultured in the medium above. After the cells were detached using Accutase (Innovative Cell Technologies), the cells were suspended in an assay medium, wherein Blasticidin and Zeocin were removed, then seeded into a 96-well plate for adherent cultures at 12,500 cells per well and cultured overnight. Then, BDNF or a peptide was added thereto, and the cells were further cultured in a CO2 incubator for 5 hours. After the 96-well plate was removed from the incubator and brought to room temperature, a detection reagent (LiveBLAzer (registered trademark)-FRET B/G (CCF4-AM) Substrate Mixture) was added while protected from the light, and the 96-well plate was incubated while protected from the light in a moisture box with a lid for 2 hours. For signal detection, a EnVision 2104 Multilabel Plate Reader (PerkinElmer) was used, and the ratio of fluorescence emission value (460 nm/535 nm) was calculated. The obtained numerical values were analyzed with GraphPad Prism, and the activity (%) was calculated with the maximum value of the signals induced by BDNF as 100% and a signal with no stimulation as 0%. The peptide with 50% or more activity when 1 nM of the peptide was added was evaluated as A, the peptide with 50% or more activity when 10 nM of the peptide was added was evaluated as B, and the peptide with 50% or more activity when 100 nM of the peptide was added was evaluated as C. Those that were not evaluated were listed as not tested.
The BDNF was evaluated at 7 points (0.0024 nM to 10 nM) from 10 nM using 4-fold dilutions.
(§1) For dimer structures Nos. 1 to 3, the peptide was evaluated at 1 nM, 10 nM, and 100 nM, and, for other dimer structure numbers, the peptide was evaluated at 0.1 nM, 1 nM, and 10 nM. When creating the concentration dependence curve, the BDNF and the peptides were evaluated at 7 points (0.006 nM to 100 nM) from 25 nM using 4-fold dilutions.

[2] = target: T1, TrkB (CellSensor TrkB-NFAT-bla CHO-K1 Cell); experiment: pERK1/2 AlphaLISA assay (phosphorylation of ERK) for TrkB agonist activity; conditions: class = peptide concentration giving 50% or more activity; BDNF maximum signal = 100%, no stimulation = 0%; 15 minutes of stimulation
Procedure: To evaluate the TrkB activation potency of the TrkB agonist peptide of the present invention, the phosphorylation of ERK was examined. CellSensor (registered trademark) TrkB-NFAT-bla CHO-K1 Cell (Invitrogen) was cultured in DMEM, high glucose, GlutaMAX (registered trademark) Supplement, and pyruvate (Thermo), comprising 10% FBS (Thermo) and 1× Non-essential amino acids (Thermo), 25 mM HEPES (Thermo), 50 ug/mL Gentamicin, 5 ug/mL Blasticidin (Thermo), and 200 ug/mL Zeocin (Thermo). After the cells were detached using Accutase (Innovative Cell Technologies), they were seeded into a 96-well plate for adherent cultures at 12,500 cells per well and cultured overnight. The next day, for starvation, the culture solution above was replaced with a nutrient starvation medium comprising 0.1% BSA (Sigma), wherein FBS, Blasticidin, and Zeocin were removed from the culture medium, and culturing was performed for 4 hours. Thereafter, Recombinant Human BDNF Protein (R&D Systems) or a peptide was added, and after 15 minutes of stimulation, cells were lysed in the Lysis Buffer provided with the AlphaLISA SureFire Ultra p-Erk1/2 (Thr202/Tyr204) assay kit (PerkinElmer). The assay was performed according to the kit protocol. The signals were detected using a SpectraMax Paradigm Multi-Mode Microplate Reader (Molecular Devices). The obtained signals were analyzed with GraphPad Prism, and the activity (%) was calculated with the maximum value of the signals induced by BDNF as 100% and a signal with no stimulation as 0%. The peptide with 50% or more activity when 1 nM of the peptide was added was evaluated as A, and the peptide with 50% or more activity when 10 nM of the peptide was added was evaluated as B.
The BDNF was evaluated at 8 points (0.0006 nM to 10 nM) from 10 nM using 4-fold dilutions.
as §1, with “8” for “7”, “100” for “25”

[3] = target: TrkB (Homo sapiens, UniProt Q16620); experiment: PathHunter eXpress TrkB Functional Assay (phosphorylation of TrkB); conditions: stimulation for 3 hours
Chain of TrkB (Q16620 32-822): as above
Procedure: To evaluate the TrkB activation potency of the TrkB agonist peptide of the present invention, the phosphorylation of TrkB was examined. The PathHunter (registered trademark) eXpress TrkB Functional Assay kit (DiscoverX; cells, 96-well plate, medium, and detection reagents included) was used and the evaluation was performed according to the attached protocols. The frozen cells were thawed and suspended in the medium, then seeded into a 96-well plate at 10,000 cells per well and incubated for 48 hours. Thereafter, Recombinant Human BDNF Protein (R&D Systems) or a peptide was added, and after stimulation for 3 hours, a detection reagent was added. The reaction was performed while protected from the light at room temperature for 60 minutes, and luminescent signals were measured using a SpectraMax Paradigm Multi-Mode Microplate Reader (Molecular Devices). The obtained signals were analyzed with GraphPad Prism, and the activity (%) was calculated with the maximum value of the signals induced by BDNF as 100% and a signal with no stimulation as 0%.
The BDNF was evaluated at 8 points (0.006 nM to 100 nM) from 100 nM using 4-fold dilutions. The peptide was evaluated in the measurement ranges A to C shown below. • Measurement range A=6 points from 100 nM using 5-fold dilutions (0.032 nM to 100 nM) • Measurement range B=8 points from 100 nM using 4-fold dilutions (0.006104 nM to 100 nM) • Measurement range C=4 points from 10 nM using 10-fold dilutions (0.01 nM to 10 nM)

Row | SMILES | NFAT Assay Results [1] | pERK (aLISA) Assay Results [2] | Emax ([3]; maximum signal induced by BDNF = 100%) [%] | EC50 [3] [nM]
1 | CC(C)C[C@@H]1NC(=O)[C@H](CO)NC(=O)[C@H](Cc2ccc(O)cc2)NC(=O)[C@H]([C@@H](C)O)NC(=O)[C@@H]2CCCN2C(=O)[C@H](Cc2c[nH]c3ccccc23)NC(=O)[C@H](Cc2cccnc2)NC(=O)[C@H](Cc2ccc(O)cc2)NC(=O)[C@@H]2CCCN2C(=O)[C@H](CC(C)C)NC(=O)[C@H](Cc2ccccc2)NC(=O)CSC[C@@H](C(=O)NCC(=O)NCCOCCOCCOCCOCCOCCOCCOCCOCCC(=O)NCCCC[C@H](NC(=O)CCOCCOCCOCCOCCOCCOCCOCCOCCNC(=O)CNC(=O)[C@@H]2CSCC(=O)N[C@@H](Cc3ccccc3)C(=O)N[C@@H](CC(C)C)C(=O)N3CCC[C@H]3C(=O)N[C@@H](Cc3ccc(O)cc3)C(=O)N[C@@H](Cc3cccnc3)C(=O)N[C@@H](Cc3c[nH]c4ccccc34)C(=O)N3CCC[C@H]3C(=O)N[C@@H]([C@@H](C)O)C(=O)N[C@@H](Cc3ccc(O)cc3)C(=O)N[C@@H](CO)C(=O)N[C@@H](CC(C)C)C(=O)N[C@@H](Cc3cccnc3)C(=O)N[C@@H](C(C)C)C(=O)N[C@@H](Cc3c[nH]c4ccccc34)C(=O)N2)C(N)=O)NC(=O)[C@H](Cc2c[nH]c3ccccc23)NC(=O)[C@H](C(C)C)NC(=O)[C@H](Cc2cccnc2)NC1=O [Dimer Structure No. 2] (I: {CH2CO}-FLPY[3Pal]WPTYSL[3Pal]VWCG[PEG8]K-NH2 / II: {CH2CO}-FLPY[3Pal]WPTYSL[3Pal]VWCG[PEG8]; amide I:18-II:C; thioether I:N-I:15, II:N-II:15) | C (the peptide with 50% or more activity when 100 nM of the peptide was added was evaluated as C) | B (the peptide with 50% or more activity when 10 nM of the peptide was added was evaluated as B) |  | 
2 | CC(=O)NCCCC[C@@H]1NC(=O)[C@H](CO)NC(=O)[C@H](Cc2ccc(O)cc2)NC(=O)[C@H]([C@@H](C)O)NC(=O)[C@@H]2CCCN2C(=O)[C@H](Cc2c[nH]c3ccccc23)NC(=O)[C@H](Cc2cccnc2)NC(=O)[C@H](Cc2ccc(O)cc2)NC(=O)[C@@H]2CCCN2C(=O)[C@H](CC(C)C)NC(=O)[C@H](Cc2ccccc2)NC(=O)CSCC(C(=O)NCC(=O)NCCOCCOCCOCCOCCOCCOCCOCCOCCC(=O)N[C@@H](CCCCNC(=O)CCOCCC(=O)NCCCCC(NC(=O)CCOCCOCCOCCOCCOCCCCCOCCOCCNC(=O)CNC(=O)C2CSCC(=O)N[C@@H](Cc3ccccc3)C(=O)N[C@@H](CC(C)C)C(=O)N3CCC[C@H]3C(=O)N[C@@H](Cc3ccc(O)cc3)C(=O)N[C@@H](Cc3cccnc3)C(=O)N[C@@H](Cc3c[nH]c4ccccc34)C(=O)N3CCC[C@H]3C(=O)N[C@@H](C(C)O)C(=O)N[C@@H](Cc3ccc(O)cc3)C(=O)N[C@@H](CO)C(=O)N[C@@H](CCCCNC(C)=O)C(=O)N[C@@H](Cc3cccnc3)C(=O)N[C@@H](C(C)C)C(=O)N[C@@H](CCC(=O)O)C(=O)N2)C(N)=O)C(N)=O)NC(=O)[C@H](CCC(=O)O)NC(=O)[C@H](C(C)C)CC(=O)[C@H](Cc2cccnc2)NC1=O (some centres unmarked) [Dimer Structure No. 40] (I: {CH2CO}-FLPY[3Pal]WPTYSK(Ac)[X3]E[ξC]G[PEG8]K-NH2 / II: {CH2CO}-FLPY[3Pal]WP[Thr(3ξ)]YSK(Ac)[3Pal]VE[ξC]G; linker I:17-II:C via X4; thioether I:N-I:14, II:N-II:15) | B (the peptide with 50% or more activity when 10 nM of the peptide was added was evaluated as B) | B (the peptide with 50% or more activity when 10 nM of the peptide was added was evaluated as B) |  | 
3 | CC(C)[C@@H]1NC(=O)[C@H](Cc2cccnc2)NC(=O)[C@H](CCC(=O)O)NC(=O)[C@H](CO)NC(=O)[C@H](Cc2ccc(O)cc2)NC(=O)[C@H]([C@@H](C)O)NC(=O)C2CCCN2C(=O)[C@H](Cc2c[nH]c3ccccc23)NC(=O)[C@H](Cc2cccnc2)NC(=O)[C@H](Cc2ccc(O)cc2)NC(=O)[C@@H]2CCCN2C(=O)[C@H](CO)NC(=O)[C@H](Cc2ccccc2)NC(=O)CSC[C@@H](C(=O)NCC(=O)N[C@@H](CCCCNC(=O)CCOCCOCCOCCOCCOCCOCCOCCOCCOCCOCCOCCOCCOCCC(=O)NCCCC[C@H](NC(=O)CNC(=O)[C@@H]2CSCC(=O)N[C@@H](Cc3ccccc3)C(=O)N[C@@H](CO)C(=O)N3CCC[C@H]3C(=O)N[C@@H](Cc3ccc(O)cc3)C(=O)N[C@@H](Cc3cccnc3)C(=O)N[C@@H](Cc3c[nH]c4ccccc34)C(=O)N3CCC[C@H]3C(=O)N[C@@H]([C@@H](C)O)C(=O)N[C@@H](Cc3ccc(O)cc3)C(=O)N[C@@H](CO)C(=O)N[C@@H](CCC(=O)O)C(=O)N[C@@H](Cc3cccnc3)C(=O)N[C@@H](C(C)C)C(=O)N[C@@H](CCC(=O)O)C(=O)N2)C(N)=O)C(N)=O)NC(=O)[C@H](CCC(=O)O)NC1=O (some centres unmarked) [Dimer Structure No. 48] (I: {CH2CO}-FSPY[3Pal]WPTYSE[3Pal]VECGK-NH2 / II: {CH2CO}-FSPY[3Pal]W[ξP]TYSE[3Pal]VECGK-NH2; linker I:17-II:17 via CO(CH2CH2O)13CH2CH2CO; thioether I:N-I:15, II:N-II:15) | B (the peptide with 50% or more activity when 10 nM of the peptide was added was evaluated as B) | B (the peptide with 50% or more activity when 10 nM of the peptide was added was evaluated as B) | 89 | 0.8 to 4
